Assays:
[1] = tested on: mRNAs in J774.2 cells; assay: Affymetrix microarray: mRNAs up- or down-regulated by Compounds A and B in LPS-stimulated macrophages; format: cell-based, murine; settings: 50 μg/ml compound + 100 ng/ml LPS, 24 hours, J774.2 only; for Numbers of mRNAs with levels significantly altered by both Compounds A and B, in the presence of LPS: Decreased: decreased at least 2-fold by both compounds; for Numbers of mRNAs with levels significantly altered by both Compounds A and B, in the presence of LPS: Increased: increased at least 2-fold by both compounds
Description: (§1) Two murine macrophage cell lines were used: J774.2 (gift from Peter Lambert, Aston University, UK), and RAW 264.7 (ATCC item number TIB-71). Cells were harvested from nearly confluent culture flasks and seeded into 6 well plates at a density of 5×10^6 cells well^−1 in a volume of 3 ml Dulbecco's modified essential medium supplemented with 10% fetal calf serum. After 2 hours, cells were exposed to the following conditions:
5) 50 μg/ml Compound A+100 ng/ml LPS (J774 cells only)
6) 50 μg/ml Compound B+100 ng/ml LPS (J774 cells only)
(§2) The tetracycline compounds were added 1.5 hours post seeding, thirty minutes before the addition of LPS. The plates were incubated at 37° C. at 5% CO2 in a humidified incubator.
(§3) 24 hours after incubation under experimental conditions, media was removed from the wells, and total RNA was purified from each sample using QIAGEN RNeasy® Mini columns. The manipulations which were then performed on the total RNA samples were as outlined in The Affymetrix® GeneChip® Expression Analysis technical manual, sections 2, chapter 1, entitled Eukaryotic Target Preparation. Briefly, RNA was reverse transcribed into double stranded cDNA with an oligo dT primer containing a T7 promoter. The product was then purified by phenol:chloroform:isoamyl extraction and ethanol precipitation, and then used in an […] to synthesize biotin-labelled antisense cRNA (Affymetrix controls of B. subtilis genes excised from pBluescript plasmid with Xho I digestion were added at this stage to control for correct translation and biotin incorporation). The cRNA was then cleaned using QIAGEN RNeasy® Mini columns, and the resulting cRNA solution fragmented using metal-induced hydrolysis.
Samples were prepared for hybridization with the Affymetrix murine genome chips U74AV2 according to the directions in the Affymetrix® GeneChip® Expression Analysis technical manual, sections 2, chapters 3 and 4, entitled Eukaryotic Target Hybridization and Eukaryotic Arrays: Washing Staining and Scanning. Briefly, 15 ug Fragmented cRNA was mixed with Affymetrix hybridization controls, herring sperm DNA, BSA, and concentrated hybridization buffer, boiled for 5 minutes, centrifuged at 14000×g for 5 minutes to obtain a precipitated-free solution, and hybridized with the array for 16 hours. […]
For J774.2 cells stimulated by LPS, two lists were generated, one of mRNAs which were increased at lease 2-fold by Compounds A and/or B, and one of mRNAs which were decreased at least 2-fold by Compounds A and/or B. In the case of mRNAs which were increased, the mRNAs had to be statistically ‘Present’ in the samples which contained Compounds A and/or B (‘Present’ as determined by the Affymetrix microarray suite software).

[2] = in vitro; format: cell-based; settings: African green monkey (COS-1) and Chinese hamster (CHO-K1)
Description: COS-1 and CHO-K1 cell suspensions were prepared, seeded into 96-well tissue culture treated black-walled microtiter plates (density determined by cell line), and incubated overnight at 37° C., in 5% CO2 and approximately 95% humidity. The following day, serial dilutions of drug were prepared under sterile conditions and transferred to cell plates. Cell/Drug plates were incubated under the above conditions for 24 hours. Following the incubation period, media/drug was aspirated and 50 μl of Resazurin (0.042 mg/ml in PBS w/Ca and Mg) was added. The plates were then incubated under the above conditions for 2 hours and then in the dark at room temperature for an additional 30 minutes. Fluorescence measurements were taken (excitation 535 nm, emission 590 nm). The IC50 (concentration of drug causing 50% growth inhibition) was then calculated.

[3] = tested on: mRNAs in J774.2 and RAW264.7 cells; assay: Affymetrix microarray: mRNAs up- or down-regulated by minocycline in murine macrophage cell lines; format: cell-based; settings: 24 hours
Description: as §1
1) control (J774 cells on two separate occasions, and RAW 264.7 cells)
2) 50 μg/ml minocycline (J774 cells on two separate occasions, and RAW 264.7 cells)
3) 100 ng/ml LPS (J774 cells on two separate occasions, and RAW 264.7 cells)
4) 50 μg/ml minocycline+100 ng/ml LPS (J774 cells on two separate occasions, and RAW 264.7 cells)
as §2
as §3, with “hydrolysis. […]” for “hydrolysis.”
For both J774.2 and RAW264.7 cells, two lists were generated, one of mRNAs which were increased at lease 2-fold by minocycline, and one of mRNAs which were decreased at least 2-fold by minocycline. In the case of mRNAs which were increased, the mRNAs had to be statistically ‘Present’ in the samples which contained minocycline (‘Present’ as determined by the Affymetrix microarray suite software). […]
For both J774.2 and RAW264.7 cells stimulated by LPS, two lists were generated, one of mRNAs which were increased at lease 2-fold by minocycline, and one of mRNAs which were decreased at least 2-fold by minocycline. In the case of mRNAs which were increased, the mRNAs had to be statistically ‘Present’ in the samples which contained minocycline (‘Present’ as determined by the Affymetrix microarray suite software).

IC50 at 24 h [2]	Structure (SMILES)	Numbers of mRNAs with levels significantly altered by both Compounds A and B, in the presence of LPS: Decreased [1]	Numbers of mRNAs with levels significantly altered by both Compounds A and B, in the presence of LPS: Increased [1]	Numbers of mRNAs with levels significantly altered by minocycline, in the presence of LPS: Decreased ([3]; 50 μg/ml minocycline + 100 ng/ml LPS, decreased at least 2-fold, common to all three lists (J774.2 twice, RAW264.7))	Numbers of mRNAs with levels significantly altered by minocycline, in the presence of LPS: Increased ([3]; 50 μg/ml minocycline + 100 ng/ml LPS, increased at least 2-fold, common to all three lists (J774.2 twice, RAW264.7))	Numbers of mRNAs with levels significantly altered by minocycline: Decreased ([3]; 50 μg/ml minocycline, no LPS, decreased at least 2-fold, mRNAs common to all three lists (J774.2 twice, RAW264.7))	Numbers of mRNAs with levels significantly altered by minocycline: Increased ([3]; 50 μg/ml minocycline, no LPS, increased at least 2-fold, mRNAs common to all three lists (J774.2 twice, RAW264.7))
	C[C@H]1c2ccc(N3CCCCC3)c(O)c2C(=O)C2=C(O)[C@]3(O)C(=O)C(C(N)=O)=C(O)C(N(C)C)[C@@H]3[C@@H](O)[C@@H]21 (stereo partly shown) [Compound B]	108	133				
> 25 µg/mL	C[C@H]1c2cccc(O)c2C(=O)C2=C(O)[C@]3(O)C(=O)C(C(N)=O)=C(O)[C@@H](N(C)C)[C@@H]3[C@@H](O)[C@@H]21 [doxycycline]						
> 25 µg/mL	CN(C)c1ccc(O)c2c1C[C@H]1C[C@H]3[C@H](N(C)C)C(O)=C(C(N)=O)C(=O)[C@@]3(O)C(O)=C1C2=O [minocycline]			9	28	4	21
	CN(C)C1C(O)=C(C(N)=O)C(=O)[C@@]2(O)C(O)=C3C(=O)c4c(O)ccc(CNCC(C)(C)C)c4C[C@H]3C[C@@H]12 (stereo partly shown) [Compound A]	108	133				

From patent US9562003B2, “Methods of using substituted tetracycline compounds to modulate RNA” (Paratek Pharmaceuticals, Inc., priority 2002, dated 2017)
